Test results: US5869271A, “G-beta-gamma regulated phosphatidylinositol-3' kinase” (Onyx Pharmaceuticals, priority 1997, dated 1999)

How the values were obtained:
[1] = test system: neutrophils; settings: cited from earlier work
[2] = test system: Gβγ-activated PI3K (PI3Ks A and B; p117/p101 and p120/p101 heterodimers); test: PI3K assay on purified pig neutrophil Gβγ-activated PI3Ks A and B; format: biochemical; settings: 100 nM wortmannin; 5 μM ATP in the assays
[3] = target: free p120 PI3K catalytic subunit (Sus scrofa, UniProt O02697); test: PI3K assay on free recombinant p120 (Sf9-derived); format: biochemical, porcine
Experimental: Assays contained either 7 nM p101/p120 or 36 nM p120 alone (final concentrations) which were incubated with various reagents; 10 mM NaF and 30 μM AlCl3 (A/F) ; 1 μM Gβγ-subunits (βγ); 2 μM Gα-GDP; 100 nM wortmannin (W) or 50 μM tyrosine phosphorylated peptide (PY) for a total of 15 minutes (at 0° C.) prior to starting the assays by adding [γ^32 P]-ATP; [^32 P]-incorporated into [^32 P]-PtdIns(3,4,5) P3 was quantified. The data shown are means (n=2).
Purified aliquots of Sf9 -derived or pig neutrophil cytosol-derived PI3K were diluted in ice-cold 0.12M NaCl, 25 mM HEPES, 1 mM EGTA, 1 mM DTT, 1 mg-ml^-1 BSA, 1% betaine, 0.02%, w/v, Tween-20, pH 7.4, 0° C. to an appropriate extent, then 5 μl aliquots were stored on ice until assayed. […] 30 μl of a mixture of phospholipids with or without Gβγs and/or Gαs (either GDP-bound or activated) was added to the 5 μl fractions, or 10 μl of beads, and mixed. After 10 minutes on ice, 5-10 μl of last wash buffer, supplemented with MgCl2 to give a final concentration in the extant assay volume of 3.5 mM, was added and mixed. Six minutes later, 5 μl of last wash buffer was added (to give a final assay volume of 50 μl) containing [^32 ]-ATP (typically 10 μCi assay^-1, Amersham, PB10168) and 3.5 mM MgCl2, tubes were mixed and transferred to a 30° C. water bath. […]

[4] = target: T1, PI3K activity in α-(EE)-p101 immunoprecipitates from U937 cells (Homo sapiens, UniProt P48736); test: PI3K assay on α-(EE)-p101 immunoprecipitates from transfected U937 cells; format: biochemical
T1 construct: U937 cells (human) contain an endogenous PI3K catalytic subunit; expressed in transfected cells; host or cells: U937 (p101 transfected, catalytic subunit endogenous)
T1 sequence (P48736 whole entry): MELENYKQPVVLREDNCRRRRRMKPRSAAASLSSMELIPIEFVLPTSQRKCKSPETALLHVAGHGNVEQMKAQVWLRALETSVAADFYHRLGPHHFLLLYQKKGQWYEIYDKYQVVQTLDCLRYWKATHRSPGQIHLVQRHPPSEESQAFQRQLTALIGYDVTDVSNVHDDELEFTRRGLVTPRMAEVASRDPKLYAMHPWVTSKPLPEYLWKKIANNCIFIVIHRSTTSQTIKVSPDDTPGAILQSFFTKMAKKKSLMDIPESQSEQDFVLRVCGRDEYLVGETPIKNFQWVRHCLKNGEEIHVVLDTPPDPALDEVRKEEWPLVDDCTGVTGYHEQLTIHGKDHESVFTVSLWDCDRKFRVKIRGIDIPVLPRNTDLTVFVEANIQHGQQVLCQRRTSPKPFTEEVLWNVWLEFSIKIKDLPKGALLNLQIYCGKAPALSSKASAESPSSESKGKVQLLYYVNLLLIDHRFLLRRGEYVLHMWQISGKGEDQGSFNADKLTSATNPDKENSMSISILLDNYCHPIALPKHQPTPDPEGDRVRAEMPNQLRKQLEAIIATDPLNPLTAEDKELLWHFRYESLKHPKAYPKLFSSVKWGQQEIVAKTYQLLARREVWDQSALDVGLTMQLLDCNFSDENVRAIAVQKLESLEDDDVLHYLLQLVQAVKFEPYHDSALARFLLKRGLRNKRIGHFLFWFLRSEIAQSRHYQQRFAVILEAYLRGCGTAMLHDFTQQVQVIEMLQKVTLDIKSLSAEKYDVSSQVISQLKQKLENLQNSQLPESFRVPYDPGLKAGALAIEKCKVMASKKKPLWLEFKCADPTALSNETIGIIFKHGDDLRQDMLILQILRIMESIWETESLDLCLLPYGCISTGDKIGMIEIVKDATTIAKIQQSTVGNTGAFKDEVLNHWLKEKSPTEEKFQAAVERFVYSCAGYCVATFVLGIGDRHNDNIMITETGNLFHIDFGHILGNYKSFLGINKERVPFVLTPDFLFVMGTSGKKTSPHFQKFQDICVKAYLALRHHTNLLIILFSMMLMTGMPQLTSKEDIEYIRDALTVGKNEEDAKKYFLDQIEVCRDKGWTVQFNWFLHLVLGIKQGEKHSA
T1 sequence (as listed by the source partner): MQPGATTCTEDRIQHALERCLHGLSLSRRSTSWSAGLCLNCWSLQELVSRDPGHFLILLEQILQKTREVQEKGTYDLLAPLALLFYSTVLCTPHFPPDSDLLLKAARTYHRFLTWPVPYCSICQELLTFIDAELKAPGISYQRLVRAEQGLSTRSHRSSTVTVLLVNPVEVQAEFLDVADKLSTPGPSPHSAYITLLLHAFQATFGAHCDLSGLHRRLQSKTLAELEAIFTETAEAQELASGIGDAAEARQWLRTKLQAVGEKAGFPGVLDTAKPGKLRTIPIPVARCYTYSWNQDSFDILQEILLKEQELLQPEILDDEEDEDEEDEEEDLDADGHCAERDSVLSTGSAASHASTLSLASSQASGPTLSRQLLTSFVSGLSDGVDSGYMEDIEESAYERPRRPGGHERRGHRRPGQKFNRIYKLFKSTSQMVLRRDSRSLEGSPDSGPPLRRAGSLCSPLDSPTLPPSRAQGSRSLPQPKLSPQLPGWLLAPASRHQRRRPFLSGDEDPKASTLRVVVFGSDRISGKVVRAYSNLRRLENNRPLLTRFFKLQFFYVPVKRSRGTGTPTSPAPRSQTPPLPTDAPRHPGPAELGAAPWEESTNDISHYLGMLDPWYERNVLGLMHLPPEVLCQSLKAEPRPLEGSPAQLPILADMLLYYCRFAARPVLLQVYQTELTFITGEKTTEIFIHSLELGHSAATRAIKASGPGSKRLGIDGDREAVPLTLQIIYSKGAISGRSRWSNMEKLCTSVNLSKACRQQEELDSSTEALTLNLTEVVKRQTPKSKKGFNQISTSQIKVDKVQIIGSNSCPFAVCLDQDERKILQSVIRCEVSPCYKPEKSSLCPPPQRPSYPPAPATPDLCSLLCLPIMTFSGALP
Experimental: U937 cells were transiently transfected with mammalian expression vectors encoding either (EE)120 or (EE)101, co-transfected in combination with mammalian expression vectors encoding myc101, myc120, or an irrelevant control myc fusion protein, as indicated. A total of 40 μg of vector DNA was used. After co-transfection, the cells lysed, precleaned and immunoprecipitated with protein G sepharose covalently cross-linked to α-(EE) monoclonal antibody as described more fully in the Examples herein. The resulting immunoprecipitates were washed and Gβγ-activated (1 μM, final concentration) PI3K activity was assayed. The PI3K activity detected in immunoprecipitates from cells transfected with irrelevant (EE)-tagged protein, either with or without Gβγs was subtracted from the data shown (these were means of 1896 dpm and 2862 dpm in the absence and presence of Gβγs, respectively).
If the PI3K assays were performed on immunoprecipitates from U937 cells (see following examples) then the PI3K was immobilized on 10 μl of packed protein G Sepharose beads in an ice-cold buffer defined above. 30 μl of a mixture of phospholipids with or without Gβγs and/or Gαs (either GDP-bound or activated) was added to the 5 μl fractions, or 10 μl of beads, and mixed. […]

free p120 PI3K catalytic subunit, sequence (O02697 whole entry): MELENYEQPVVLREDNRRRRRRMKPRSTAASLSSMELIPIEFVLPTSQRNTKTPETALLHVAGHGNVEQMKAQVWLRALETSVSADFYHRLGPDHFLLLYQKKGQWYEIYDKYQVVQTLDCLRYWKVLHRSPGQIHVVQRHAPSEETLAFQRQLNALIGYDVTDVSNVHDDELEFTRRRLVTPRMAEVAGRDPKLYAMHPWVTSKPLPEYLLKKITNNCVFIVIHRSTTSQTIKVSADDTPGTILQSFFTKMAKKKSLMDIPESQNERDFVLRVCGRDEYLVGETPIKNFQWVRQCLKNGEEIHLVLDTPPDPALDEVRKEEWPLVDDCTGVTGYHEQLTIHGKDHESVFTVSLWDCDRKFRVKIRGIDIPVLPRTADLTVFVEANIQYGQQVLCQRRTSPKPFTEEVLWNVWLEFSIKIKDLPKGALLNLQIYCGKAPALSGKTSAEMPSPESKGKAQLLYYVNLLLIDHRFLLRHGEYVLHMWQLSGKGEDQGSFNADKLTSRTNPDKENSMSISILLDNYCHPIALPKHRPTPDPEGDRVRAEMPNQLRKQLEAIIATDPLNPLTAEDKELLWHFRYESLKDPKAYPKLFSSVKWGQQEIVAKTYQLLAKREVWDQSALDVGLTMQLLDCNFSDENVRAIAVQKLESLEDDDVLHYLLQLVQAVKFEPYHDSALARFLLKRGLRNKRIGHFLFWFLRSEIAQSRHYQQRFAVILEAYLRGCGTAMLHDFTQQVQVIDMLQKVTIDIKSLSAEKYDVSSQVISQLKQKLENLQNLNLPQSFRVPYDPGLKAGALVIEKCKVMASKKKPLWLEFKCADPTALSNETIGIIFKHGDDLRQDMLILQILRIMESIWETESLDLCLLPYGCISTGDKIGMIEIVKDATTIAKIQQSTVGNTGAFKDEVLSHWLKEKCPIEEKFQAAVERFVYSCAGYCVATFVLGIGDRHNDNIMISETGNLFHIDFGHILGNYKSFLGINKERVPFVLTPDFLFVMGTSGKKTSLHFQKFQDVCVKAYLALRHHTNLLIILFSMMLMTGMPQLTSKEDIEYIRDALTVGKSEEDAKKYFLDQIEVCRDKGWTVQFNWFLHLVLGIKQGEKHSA

COC[C@H]1OC(=O)c2coc3c2[C@@]1(C)C1=C(C3=O)[C@@H]2CCC(=O)[C@@]2(C)C[C@H]1OC(C)=O [wortmannin]
fMLP-induced respiratory burst response ([1]; Thelen et al., 1994): prevents
superoxide production in neutrophils [1]: shutdown of superoxide production
inhibition of PI3K activity by wortmannin [2]: completely inhibited
wortmannin sensitivity of free p120 PI3K activity [3]: wortmannin-sensitive
wortmannin sensitivity of PI3K activity in α-(EE)-p101 immunoprecipitates [4]: wortmannin-sensitive
